Measured values as given in patent US20080141384A1, “Composition For Screening Anti-Hypertension Drug Comprising Mammal Tctp Gene or Its Protein Product, and Method For Screening Anti-Hypertension Drug Using Said Composition” (EWHA UNIVERSITY INDUSTRY COLLABORATION FOUNDATION, priority 2003, published 2008).

Columns and labels:
Na/K APTase pump [1] = assay: Na/K APTase pump activity by 86Rb+ uptake in RBL-2H3 cells; assay type: cell-based; details: 10-20 μg/ml TCTP added, 86Rb+ tracer, versus control without TCTP, FIG. 1a
Procedure: The Na/K APTase pump inhibitory activity of the TCTP protein contained in the inventive composition was examined. As it was already known that TCTP interacts with the Na/K APTase pump, a test was performed to examine if the interaction has any effect on the activity of the Na/K APTase pump inhibitory activity.
RBL-2H3 cells were cultured at a suitable density and washed three times with Krebs-Ringer buffer (KRP, 140 mM NaCl, 5 mM KCl, 10 mM Na2HPO4, 1 mM MgSO4, 1.4 mM CaCl2, 2.5 mM glucose, pH 7.4). Subsequently, the cells were incubated at 37° C. for 15 minutes, and added with 0.1% BSA-containing KRP buffer containing 1 mM ouabain.
To measure the transport of K^+ ions caused by the Na/K APTase pump, cultivation was performed for 5-10 minutes using an ^86Rb^+([…], NEN) tracer having high sensitivity to ouabain, and 10-20 μg/ml TCTP was added. Also, a control group to which TCTP had not been added was prepared.

Na/K APTase pump [2] = assay: FACS analysis of intracellular Na+ using a Na-sensitive dye; assay type: cell-based; details: FACS with Na-sensitive dye, versus control group (Mock); FIG. 1b
Procedure: To confirm the above results again, FACS analysis was performed using a Na-sensitive dye.

Na/K-ATPase pump = assay: cell-based or functional assay

Row | Substance | activity of the Na/K APTase pump (reduced to) (Na/K APTase pump [1]) | intracellular Na+ concentration (Na/K APTase pump [2]) | activity of the Na/K APTase pump (ouabain-sensitive 86Rb+ uptake in RBL-2H3 cells, 10-20 ug/ml TCTP against a control without TCTP) (Na/K-ATPase pump)
1 | TCTP: Translationally controlled tumor protein (IgE-dependent histamine-releasing factor), amino acid sequence of SEQ ID NO: 2; cytoplasmic inhibitor of the Na/K-ATPase pump | 53.5% | increased the intracellular Na^+ concentration | –
2 | Translationally controlled tumor protein (TCTP) (from UniProt P13693 1-172) | – | – | 53.5%
